# Results taken from patent US4132778A, “Antibiotic A-32887” (Eli Lilly and Company, priority 1977, dated 1979).
# Key:
# [1] = tested on: Pasteurella multocida (bovine); assay: Standard agar-dilution assay (MIC), Table VI; assay type: cell-based; conditions: Na-K salt
# Text: Antibiotic A-32887 inhibits the growth of pathogenic bacteria, especially gram-positive bacteria. Table VI summarizes the minimal inhibitory concentrations (MIC), as measured by standard agar-dilution assays, at which A-32887 (Na-K salt) inhibits certain bacteria.
# [2] = tested on: Diplococcus pneumoniae; assay: Conventional disc-diffusion method, Table VII; assay type: cell-based
# Text: (§1) The activity of A-32887 (Na-K salt) against illustrative bacteria, as measured by the conventional disc-diffusion method, is summarized in Table VI.
# [3] = tested on: Staphylococcus aureus 3055; assay: Conventional disc-diffusion method, Table VII; assay type: cell-based
# Text: as §1
# [4] = tested on: Streptococcus pyogenes (Group A); assay: Conventional disc-diffusion method, Table VII; assay type: cell-based
# Text: as §1
# [5] = tested on: Streptococcus sp. (Group D); assay: Conventional disc-diffusion method, Table VII; assay type: cell-based
# Text: as §1
# [6] = tested on: Staphylococcus aureus 3074 (Penicillin G-resistant); assay: Conventional disc-diffusion method, Table VII; assay type: cell-based
# Text: as §1
# *Penicillin G-resistant
# [7] = tested on: Staphylococcus aureus 3130 (Methicillin-resistant); assay: Conventional disc-diffusion method, Table VII; assay type: cell-based
# Text: as §1
# **Methicillin-resistant
# [8] = tested on: Clostridium perfringens; assay type: cell-based; conditions: 24-hour incubation
# [9] = tested on: Eubacterium aerofaciens; assay: Standard agar-dilution assay, anaerobic bacteria, Table IX; assay type: cell-based; conditions: 24-hour incubation
# [10] = tested on: Peptococcus prevoti; assay: as above; assay type: cell-based; conditions: 24-hour incubation
# [11] = tested on: Peptostreptococcus anaerobius; assay: as above; assay type: cell-based; conditions: 24-hour incubation
# [12] = tested on: Peptostreptococcus intermedius; assay: as above; assay type: cell-based; conditions: 24-hour incubation
# [13] = tested on: Propionibacterium acnes; assay: as above; assay type: cell-based; conditions: 24-hour incubation
# [14] = tested on: Bacteriodes fragilis ssp fragilis 1877; assay: as above; assay type: cell-based; conditions: 24-hour incubation
# [15] = tested on: Bacteriodes fragilis ssp fragilis 1936B; assay: as above; assay type: cell-based; conditions: 24-hour incubation
# [16] = tested on: Bacteriodes fragilis ssp thetaiotaomicron; assay: as above; assay type: cell-based; conditions: 24-hour incubation
# [17] = tested on: Bacteriodes melaninogenicus 2736; assay: as above; assay type: cell-based; conditions: 24-hour incubation
# [18] = tested on: Bacteriodes corrodens; assay: as above; assay type: cell-based; conditions: 24-hour incubation
# [19] = tested on: Fusobacterium symbiosum; assay: as above; assay type: cell-based; conditions: 24-hour incubation
# [20] = tested on: Fusobacterium necrophorum; assay: as above; assay type: cell-based; conditions: 24-hour incubation
# [21] = tested on: E. tenella AND E. maxima; assay: Anticoccidial feeding test in chicks, E. tenella and E. maxima (Table XI); assay type: in vivo; set-up: Average Lesion Score, Total Intestinal / Average Lesion Score, Cecal: scale not given here; Mortality: unit not given here; conditions: for Mortality: due to coccidiosis
# Description: ^1 70,000 oocysts/bird of each of E. tenella and E. maxima
# ^2 Infected 48 hours postmedication; terminated seven days
# ^3 Four replicates; five birds/replicate
# [22] = tested on: coccidia; assay: Feeding experiments in chicks challenged with coccidia; assay type: in vivo, Eimeria species; chicks; conditions: levels as low as 40 ppm in feed of young chickens
# [23] = tested on: rumen flora; assay: Rumen volatile-fatty-acid (VFA) production test in flasks (Table XIV); conditions: 1 mcg/ml
# [24] = tested on: acute swine dysentery; assay: Swine dysentery test in infected pigs (Table XVII); assay type: in vivo; conditions: 100 g/ton in feed
# Description: In another aspect the A-32887 compounds are useful in the prevention and control of swine dysentery. A preferred method of administration to swine is by incorporation of an appropriate amount of an A-32887 compound into the feed ration. […] In this test, groups of four pigs were challenged orally with 5.0 ml of a colon-content/tissue suspension prepared from pigs suffering from acute swine dysentery. Treated pigs were challenged 24 hours after initiating feed treatment. The test was carried out over a period of 26 days, observing pigs daily, and weighing them weekly and on day 26.
# *Fecal material for each group was rated daily with 0= normal, 1= slight
# blood or mucus, 2= moderate blood or mucus, 3= marked blood or mucus.
# Index is the total score per treatment for 25 days.
# [25] = tested on: powdery mildew disease in bean plants; assay: Plant disease test, spray; assay type: in vivo; conditions: 400 ppm as a spray
# Text: The A-32887 compounds are also useful in the treatment of certain plant diseases.
# [26] = tested on: Mexican bean beetle; assay: Insecticidal activity; assay type: in vivo; conditions: 1000 ppm
# Text: (§2) In another aspect, the A-32887 compounds are useful as insecticides. For example, A-32887 (Na-K salt) is active against insects such as Mexican bean beetle, Southern armyworm and housefly when applied at a rate of 1000 ppm.
# [27] = tested on: Southern armyworm; assay: Insecticidal activity; assay type: in vivo; conditions: 1000 ppm
# Text: as §2
# [28] = tested on: housefly; assay: Insecticidal activity; assay type: in vivo; conditions: 1000 ppm
# Text: as §2
# [29] = tested on: ATPase; assay: In vitro ATPase inhibition test using NaCl; assay type: biochemical
# Text: In yet another aspect, the A-32887 compounds are active as inhibitors of the enzyme ATPase. ATPase, an alkali-metal-sensitive enzyme found in cell membranes, is involved in the energy necessary for active transport. "Active transport" refers to the energy-requiring series of operations whereby intracellular and extracellular fluids maintain their compositions. Inhibitors of ATPase reduce the energy required for active transport.
# [30] = tested on: guinea pig left atria; assay: Cardiac contractility in guinea pig left atria; conditions: 10^-5 molar
# Text: The A-32887 compounds are potential cardiotonic agents. In tests using guinea pig left atria, A-32887 (Na-K salt) increased cardiac contractility. Response to this test is expressed as a percentage of the maximal force that could be elicited by a challenge dose of norepinephrine. A-32887 (Na-K salt), at a 10^-5 molar concentration, increased cardiac contractility by 28.0 ± 7.1 percent.
structure (smiles),measurement,setting,value
CO[C@H]1CC[C@H](OC2[C@@H](C)[C@@](C)(O)O[C@H]([C@H]3CC[C@H]([C@@H]4CC[C@H]([C@@]5(C)O[C@]6(O[C@H](C[C@@H]7O[C@](O)([C@@H](O)C(=O)O)[C@@H](C)[C@H](OC)[C@@]7(C)OC)C[C@@H](OC)[C@H]6C)[C@H](C)[C@H]5OC)O4)O3)[C@H]2C)O[C@@H]1C.[K+].[Na+] (stereo partly shown) [A-32887 (Na-K salt)],MIC,[1],50.00 µg/mL
same,Zone of Inhibition,[2]; 30 mcg/disc,16.0 mm
same,Zone of Inhibition,[2]; 300 mcg/disc,18.0 mm
same,Zone of Inhibition,[3]; 30 mcg/disc,12.0 mm
same,Zone of Inhibition,[3]; 300 mcg/disc,15.6 mm
same,Zone of Inhibition,[4]; 30 mcg/disc,14.0 mm
same,Zone of Inhibition,[4]; 300 mcg/disc,17.5 mm
same,Zone of Inhibition,[5]; 30 mcg/disc,13.7 mm
same,Zone of Inhibition,[5]; 300 mcg/disc,14.7 mm
same,Zone of Inhibition,[6]; 30 mcg/disc,12.7 mm
same,Zone of Inhibition,[6]; 300 mcg/disc,16.0 mm
same,Zone of Inhibition,[7]; 30 mcg/disc,15.0 mm
same,Zone of Inhibition,[7]; 300 mcg/disc,15.2 mm
same,MIC,[8],≤ 0.5 µg/mL
same,MIC,[9],≤ 0.5 µg/mL
same,MIC,[10],≤ 0.5 µg/mL
same,MIC,[11],≤ 0.5 µg/mL
same,MIC,[12],1.0 µg/mL
same,MIC,[13],≤ 0.5 µg/mL
same,MIC,[14],2 µg/mL
same,MIC,[15],2 µg/mL
same,MIC,[16],2 µg/mL
same,MIC,[17],2 µg/mL
same,MIC,[18],2 µg/mL
same,MIC,[19],32 µg/mL
same,MIC,[20],32 µg/mL
same,"Average Lesion Score, Cecal",[21]; 40 ppm in feed,1.6
same,"Average Lesion Score, Total Intestinal",[21]; 40 ppm in feed,4.9
same,Mortality,[21]; 40 ppm in feed,0
same,"Average Lesion Score, Cecal",[21]; 60 ppm in feed,0.6
same,"Average Lesion Score, Total Intestinal",[21]; 60 ppm in feed,5.9
same,Mortality,[21]; 60 ppm in feed,0
same,"Average Lesion Score, Cecal",[21]; 80 ppm in feed,0.3
same,"Average Lesion Score, Total Intestinal",[21]; 80 ppm in feed,3.0
same,Mortality,[21]; 80 ppm in feed,0
same,"Average Lesion Score, Cecal",[21]; 100 ppm in feed,0
same,"Average Lesion Score, Total Intestinal",[21]; 100 ppm in feed,1.6
same,Mortality,[21]; 100 ppm in feed,0
same,mortality and number of lesions in challenged chicks,[22],decreases mortality and the number of lesions
same,"Ratio of Treated to Control, Molar % Acetate",[23],0.5744
same,"Ratio of Treated to Control, Molar % Butyrate",[23],1.1116
same,"Ratio of Treated to Control, Total VFA mM/l.",[23],0.7498
same,"Ratio of Treated to Control, Molar % Propionate",[23]; *P<0.01,1.4191
same,No. Died per No. in Group,[24],0/4
same,No. with Colon Lesions/No. in Group,[24],2/4
same,Diarrhea Index,[24]; total score per treatment for 25 days,22
same,inhibition of powdery mildew disease,[25],inhibits powdery mildew disease
same,insecticidal activity,[26],active
same,insecticidal activity,[27],active
same,insecticidal activity,[28],active
same,ATPase inhibition,[29],shown to inhibit ATPase
same,increase of cardiac contractility (percentage of maximal force elicited by norepinephrine),[30],28.0 ± 7.1%
